Data: paper PMC7531004, “Discovery of gramicidin A analogues with altered activities by multidimensional screening of a one-bead-one-compound library” (Nature Communications, 2020)
Where a SMILES comes first, the peptide text is derived from it. [ ]: non-standard residue; d: D form. The star is where a group is joined. NHCH2CH2OH = OCCN*; For = O=C*

Legend:
[1] = cell viability/%
Procedure, shortened: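 First, library peptide stocks are diluted 250-fold in RPMI1640 with 10% heat-inactivated FBS. Next, they are mixed with P388 cells to give 1 × 10^4 cells/mL and incubated 92 h at 37 °C, 5% CO2. Finally, viability (%) is scored by WST-1 absorbance at 415 nm.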

[2] = tested on: Streptococcus pyogenes SSI-9; experiment: Antibacterial activity assay of bead-derived peptides (three concentrations); assay type: cell-based; design: key: +++: inhibition by the 640-fold diluted peptide solution; ++: inhibition by the 160-fold diluted solution; +: inhibition by the 40-fold diluted solution; -: no inhibition; conditions: S. pyogenes, bead-derived peptide solution, three concentrations
Procedure, shortened: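 Three stock dilutions per peptide (none, 4-fold, 16-fold in DMSO) are screened in 96-well format. The medium is blood-supplemented cation-adjusted MHB, inoculated with 2 × 10^5 CFU S. pyogenes SSI-9. Growth is read as cell precipitation at 18 h, 37 °C.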

[3] = H+/Na+ transport assay of bead-derived peptides (one-point); assay type: biochemical; design: key: relative activity; mean of two control wells = 1.00; conditions: bead-derived peptide solution, EYPC/EYPG LUVs;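 further: relative to parent gramicidin A activity set to 1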
Procedure, shortened: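 Values are normalized fluorescence, with Triton X-100 defining 100% and untreated LUVs 0%, and the two control wells averaging 1.00. Vesicles carried 1.0 mM pyranine and included egg yolk phosphatidylglycerol. Peptides were incubated with them 30 min at room temperature.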

## CC(C)C[C@@H](NC(=O)[C@H](C)NC(=O)[C@H](NC(=O)[C@H](C)NC(=O)CNC(=O)[C@@H](NC=O)C(C)C)C(C)C)C(=O)N[C@H](C(=O)N[C@@H](C(=O)N[C@@H](Cc1c[nH]c2ccccc12)C(=O)N[C@H](CC(C)C)C(=O)N[C@@H](Cc1c[nH]c2ccccc12)C(=O)N[C@H](CC(C)C)C(=O)N[C@@H](Cc1c[nH]c2ccccc12)C(=O)N[C@@H](C(=O)N[C@@H](Cc1c[nH]c2ccccc12)C(=O)NCCO)C(C)C)[C@H](C)O)C(C)C [compound 6160] (For-VGA[dV]A[dL]V[dT]W[dL]W[dL]W[dV]W-NHCH2CH2OH)
[1]
  viability: 70.3%
[2]
  antibacterial activity: +
[3]
  H+/Na+ transport activity normalized against the value of 1 (1.00): 1.07

## CNC(=O)C[C@@H](NC(=O)[C@H](Cc1c[nH]c2ccccc12)NC(=O)[C@H](NC(=O)[C@H](Cc1c[nH]c2ccccc12)NC(=O)[C@H](NC(=O)[C@H](Cc1c[nH]c2ccccc12)NC(=O)[C@@H](CC(C)C)NC(=O)[C@@H](NC(=O)[C@@H](CC(C)C)NC(=O)[C@H](C)NC(=O)[C@@H](CC(C)C)NC(=O)[C@H](C)NC(=O)CNC(=O)[C@@H](NC=O)C(C)C)C(C)C)C(C)C)C(C)C)C(=O)N[C@@H](Cc1c[nH]c2ccccc12)C(=O)NCCO [compound 6265] (For-VGA[dL]A[dL]V[dL]W[dV]W[dV]W[dD](NHMe)W-NHCH2CH2OH)
[1]
  viability: 79.9%
[2]
  antibacterial activity: -
[3]
  H+/Na+ transport activity normalized against the value of 1 (1.00): 1.03

## CC(C)C[C@@H](NC(=O)[C@H](C)NC(=O)CNC(=O)[C@@H](NC=O)C(C)C)C(=O)N[C@@H](C)C(=O)N[C@@H](C(=O)N[C@H](C(=O)N[C@@H](C(=O)N[C@@H](Cc1c[nH]c2ccccc12)C(=O)N[C@H](CC(C)C)C(=O)N[C@@H](Cc1c[nH]c2ccccc12)C(=O)N[C@H](CC(C)C)C(=O)N[C@@H](Cc1c[nH]c2ccccc12)C(=O)N[C@@H](C(=O)N[C@@H](Cc1c[nH]c2ccccc12)C(=O)NCCO)C(C)C)C(C)C)C(C)C)C(C)C [compound 6345] (For-VGA[dL]A[dV]V[dV]W[dL]W[dL]W[dV]W-NHCH2CH2OH)
[1]
  viability: 57.3%
[2]
  antibacterial activity: ++
[3]
  H+/Na+ transport activity normalized against the value of 1 (1.00): 1.13

## CNC(=O)C[C@@H](NC(=O)[C@@H](NC(=O)[C@@H](CC(C)C)NC(=O)[C@H](C)NC(=O)[C@H](NC(=O)[C@H](C)NC(=O)CNC(=O)[C@@H](NC=O)C(C)C)C(C)C)C(C)C)C(=O)N[C@@H](Cc1c[nH]c2ccccc12)C(=O)N[C@H](CC(C)C)C(=O)N[C@@H](Cc1c[nH]c2ccccc12)C(=O)N[C@@H](C(=O)N[C@@H](Cc1c[nH]c2ccccc12)C(=O)N[C@H](CC(C)C)C(=O)N[C@@H](Cc1c[nH]c2ccccc12)C(=O)NCCO)C(C)C [compound 6541] (For-VGA[dV]A[dL]V[dD](NHMe)W[dL]W[dV]W[dL]W-NHCH2CH2OH)
[1]
  viability: 100%
[2]
  antibacterial activity: -
[3]
  H+/Na+ transport activity normalized against the value of 1 (1.00): 1.14

## CC(C)C[C@@H](NC(=O)[C@H](C)NC(=O)CNC(=O)[C@@H](NC=O)C(C)C)C(=O)N[C@@H](C)C(=O)N[C@@H](C(=O)N[C@H](C(=O)N[C@@H](C(=O)N[C@@H](Cc1c[nH]c2ccccc12)C(=O)N[C@H](CC(C)C)C(=O)N[C@@H](Cc1c[nH]c2ccccc12)C(=O)N[C@@H](C(=O)N[C@@H](Cc1c[nH]c2ccccc12)C(=O)N[C@@H](C(=O)N[C@@H](Cc1c[nH]c2ccccc12)C(=O)NCCO)C(C)C)C(C)C)C(C)C)C(C)C)[C@H](C)O [compound 6549] (For-VGA[dL]A[dT]V[dV]W[dL]W[dV]W[dV]W-NHCH2CH2OH)
[1]
  viability: 100%
[2]
  antibacterial activity: -
[3]
  H+/Na+ transport activity normalized against the value of 1 (1.00): 1.07

## CC(C)C[C@@H](NC(=O)[C@H](Cc1c[nH]c2ccccc12)NC(=O)[C@H](NC(=O)[C@H](Cc1c[nH]c2ccccc12)NC(=O)[C@H](NC(=O)[C@H](Cc1c[nH]c2ccccc12)NC(=O)[C@H](NC(=O)[C@@H](NC(=O)[C@H](NC(=O)[C@H](C)NC(=O)[C@H](NC(=O)[C@H](C)NC(=O)CNC(=O)[C@@H](NC=O)C(C)C)[C@H](C)O)C(C)C)C(C)C)C(C)C)C(C)C)C(C)C)C(=O)N[C@@H](Cc1c[nH]c2ccccc12)C(=O)NCCO [compound 6606] (For-VGA[dT]A[dV]V[dV]W[dV]W[dV]W[dL]W-NHCH2CH2OH)
[1]
  viability: 100%
[2]
  antibacterial activity: -
[3]
  H+/Na+ transport activity normalized against the value of 1 (1.00): 1.03

## CC(C)C[C@@H](NC(=O)[C@H](C)NC(=O)[C@H](NC(=O)[C@H](C)NC(=O)CNC(=O)[C@@H](NC=O)C(C)C)C(C)C)C(=O)N[C@H](C(=O)N[C@@H](C(=O)N[C@@H](Cc1c[nH]c2ccccc12)C(=O)N[C@H](CC(C)C)C(=O)N[C@@H](Cc1c[nH]c2ccccc12)C(=O)N[C@@H](C(=O)N[C@@H](Cc1c[nH]c2ccccc12)C(=O)N[C@H](CC(C)C)C(=O)N[C@@H](Cc1c[nH]c2ccccc12)C(=O)NCCO)C(C)C)[C@H](C)O)C(C)C [compound 6842] (For-VGA[dV]A[dL]V[dT]W[dL]W[dV]W[dL]W-NHCH2CH2OH)
[1]
  viability: 100%
[2]
  antibacterial activity: -
[3]
  H+/Na+ transport activity normalized against the value of 1 (1.00): 1.14

## CC(C)C[C@@H](NC(=O)[C@H](C)NC(=O)CNC(=O)[C@@H](NC=O)C(C)C)C(=O)N[C@@H](C)C(=O)N[C@@H](C(=O)N[C@H](C(=O)N[C@@H](C(=O)N[C@@H](Cc1c[nH]c2ccccc12)C(=O)N[C@H](CC(C)C)C(=O)N[C@@H](Cc1c[nH]c2ccccc12)C(=O)N[C@H](CC(C)C)C(=O)N[C@@H](Cc1c[nH]c2ccccc12)C(=O)N[C@@H](C(=O)N[C@@H](Cc1c[nH]c2ccccc12)C(=O)NCCO)[C@H](C)O)C(C)C)C(C)C)[C@H](C)O [compound 6873] (For-VGA[dL]A[dT]V[dV]W[dL]W[dL]W[dT]W-NHCH2CH2OH)
[1]
  viability: 100%
[2]
  antibacterial activity: -
[3]
  H+/Na+ transport activity normalized against the value of 1 (1.00): 1.15

## CC(C)C[C@@H](NC(=O)[C@H](C)NC(=O)[C@H](NC(=O)[C@H](C)NC(=O)CNC(=O)[C@@H](NC=O)C(C)C)[C@H](C)O)C(=O)N[C@H](C(=O)N[C@@H](C(=O)N[C@@H](Cc1c[nH]c2ccccc12)C(=O)N[C@@H](C(=O)N[C@@H](Cc1c[nH]c2ccccc12)C(=O)N[C@H](CC(C)C)C(=O)N[C@@H](Cc1c[nH]c2ccccc12)C(=O)N[C@H](CC(C)C)C(=O)N[C@@H](Cc1c[nH]c2ccccc12)C(=O)NCCO)[C@H](C)O)C(C)C)C(C)C [compound 6896] (For-VGA[dT]A[dL]V[dV]W[dT]W[dL]W[dL]W-NHCH2CH2OH)
[1]
  viability: 100%
[2]
  antibacterial activity: -
[3]
  H+/Na+ transport activity normalized against the value of 1 (1.00): 1.18

## CC(C)C[C@@H](NC(=O)[C@H](C)NC(=O)[C@H](NC(=O)[C@H](C)NC(=O)CNC(=O)[C@@H](NC=O)C(C)C)C(C)C)C(=O)N[C@H](C(=O)N[C@H](CC(C)C)C(=O)N[C@@H](Cc1c[nH]c2ccccc12)C(=O)N[C@@H](C(=O)N[C@@H](Cc1c[nH]c2ccccc12)C(=O)N[C@@H](C(=O)N[C@@H](Cc1c[nH]c2ccccc12)C(=O)N[C@@H](C(=O)N[C@@H](Cc1c[nH]c2ccccc12)C(=O)NCCO)[C@H](C)O)C(C)C)C(C)C)C(C)C [compound 6959] (For-VGA[dV]A[dL]V[dL]W[dV]W[dV]W[dT]W-NHCH2CH2OH)
[1]
  viability: 100%
[2]
  antibacterial activity: +
[3]
  H+/Na+ transport activity normalized against the value of 1 (1.00): 1.06

## CC(C)C[C@@H](NC(=O)[C@H](C)NC(=O)CNC(=O)[C@@H](NC=O)C(C)C)C(=O)N[C@@H](C)C(=O)N[C@@H](C(=O)N[C@H](C(=O)N[C@@H](C(=O)N[C@@H](Cc1c[nH]c2ccccc12)C(=O)N[C@H](CC(C)C)C(=O)N[C@@H](Cc1c[nH]c2ccccc12)C(=O)N[C@@H](C(=O)N[C@@H](Cc1c[nH]c2ccccc12)C(=O)N[C@@H](C(=O)N[C@@H](Cc1c[nH]c2ccccc12)C(=O)NCCO)[C@H](C)O)C(C)C)C(C)C)C(C)C)C(C)C [compound 7010] (For-VGA[dL]A[dV]V[dV]W[dL]W[dV]W[dT]W-NHCH2CH2OH)
[1]
  viability: 100%
[2]
  antibacterial activity: +
[3]
  H+/Na+ transport activity normalized against the value of 1 (1.00): 1.07

## CNC(=O)C[C@@H](NC(=O)[C@H](Cc1c[nH]c2ccccc12)NC(=O)[C@@H](CC(C)C)NC(=O)[C@H](Cc1c[nH]c2ccccc12)NC(=O)[C@@H](CC(C)C)NC(=O)[C@H](Cc1c[nH]c2ccccc12)NC(=O)[C@H](NC(=O)[C@@H](NC(=O)[C@H](NC(=O)[C@H](C)NC(=O)[C@H](NC(=O)[C@H](C)NC(=O)CNC(=O)[C@@H](NC=O)C(C)C)C(C)C)C(C)C)C(C)C)C(C)C)C(=O)N[C@@H](Cc1c[nH]c2ccccc12)C(=O)NCCO [compound 7049] (For-VGA[dV]A[dV]V[dV]W[dL]W[dL]W[dD](NHMe)W-NHCH2CH2OH)
[1]
  viability: 100%
[2]
  antibacterial activity: -
[3]
  H+/Na+ transport activity normalized against the value of 1 (1.00): 1.10

## CC(C)C[C@@H](NC(=O)[C@@H](NC(=O)[C@H](NC(=O)[C@H](C)NC(=O)[C@H](NC(=O)[C@H](C)NC(=O)CNC(=O)[C@@H](NC=O)C(C)C)C(C)C)C(C)C)C(C)C)C(=O)N[C@@H](Cc1c[nH]c2ccccc12)C(=O)N[C@@H](C(=O)N[C@@H](Cc1c[nH]c2ccccc12)C(=O)N[C@@H](C(=O)N[C@@H](Cc1c[nH]c2ccccc12)C(=O)N[C@@H](C(=O)N[C@@H](Cc1c[nH]c2ccccc12)C(=O)NCCO)[C@H](C)O)C(C)C)C(C)C [compound 7050] (For-VGA[dV]A[dV]V[dL]W[dV]W[dV]W[dT]W-NHCH2CH2OH)
[1]
  viability: 100%
[2]
  antibacterial activity: -
[3]
  H+/Na+ transport activity normalized against the value of 1 (1.00): 1.21
